Test results: patent US10174067B2, “Type of cytidine derivative and application thereof” (priority 2014, dated 2019)
Marks after values point to notes of the source that are not given here.

Legend:
[1] = Method in brief: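 Test compounds formulated in ethanol:Cremophor EL:saline (5:5:90), vehicle alone as control, in HCT-116 subcutaneous xenografts in female Balb/c nudes (6/group, start 60–150 mm^3). Weight measured three times weekly, tumour weight at end; unpaired t-test on Mean±SEM data.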
[2] = system: HCT-116 colon cancer xenografts; assay: Tumor growth inhibition of HCT-116 colon cancer xenografts in tumor-bearing nude mice (tumor volume, TGI %, RTV, T/C %); assay type: in vivo, Balb/c Nude mice; details: G10-G16 groups, single IP 400 mg/kg
Method in brief: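 Tumors in HCT-116-inoculated nude mice were sized three times weekly by diameter, with volume V=3/4π(D/2)^3. Significance set at P<0.05.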

ICR mice = assay: in vivo; details: female ICR mice; single-dose ip
Method in brief: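 MTD, the dose without mortality, body-weight loss over 10% from Day 0 or marked adverse signs, was found by stepwise up/down single intraperitoneal dosing of female SPF ICR mice. Vehicle: ethanol:Cremophor EL:saline 5:5:90. Animals weighed daily and clinically checked twice daily for up to 14 days.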

[3] = Day 1, G10-G16 groups, single IP 400 mg/kg, Mean±SEM
[4] = Day 2, G10-G16 groups, single IP 400 mg/kg, Mean±SEM
[5] = Day 4, G10-G16 groups, single IP 400 mg/kg, Mean±SEM
[6] = Day 7, G10-G16 groups, single IP 400 mg/kg, Mean±SEM
[7] = Day 9, G10-G16 groups, single IP 400 mg/kg, Mean±SEM
[8] = Day 11, G10-G16 groups, single IP 400 mg/kg, Mean±SEM
[9] = Day 14, G10-G16 groups, single IP 400 mg/kg, Mean±SEM
[10] = Day 16, G10-G16 groups, single IP 400 mg/kg, Mean±SEM
[11] = Day 18, G10-G16 groups, single IP 400 mg/kg, Mean±SEM
[12] = Day 21, G10-G16 groups, single IP 400 mg/kg, Mean±SEM
[13] = Day 23, G10-G16 groups, single IP 400 mg/kg, Mean±SEM
[14] = Day 25, G10-G16 groups, single IP 400 mg/kg, Mean±SEM
[15] = Day 28, G10-G16 groups, single IP 400 mg/kg, Mean±SEM
[16] = Day 30, G10-G16 groups, single IP 400 mg/kg, Mean±SEM

With `CCCCOC(=O)Nc1nc(=O)n(C2OC(COC(=O)COc3nc(Cl)c(Cl)cc3Cl)C(O)C2(F)F)cc1I` (centres unmarked) [Compound G11] the “Weight change rate, Day 0” value ([1]; Day 0, G10-G16 groups, single IP 400 mg/kg) was 0.00%, the “Weight of mice, Day 0” value ([1]; Day 0, G10-G16 groups, single IP 400 mg/kg, Mean±SEM) was 20.48 ± 0.27 g and the “Weight change rate, Day 1” value [1, 3] was −5.41 ± 1.27 %. The “Weight of mice, Day 1” value [1, 3] was 19.38 ± 0.43 g, the “Weight change rate, Day 2” value [1, 4] was −6.03 ± 0.57 % and the “Weight of mice, Day 2” value [1, 4] was 19.25 ± 0.31 g. The “Weight change rate, Day 4” value [1, 5] was −2.00 ± 0.76%, the “Weight of mice, Day 4” value [1, 5] was 20.07 ± 0.18 g and the “Weight change rate, Day 7” value [1, 6] was −3.58 ± 1.49%. The “Weight of mice, Day 7” value [1, 6] was 19.73 ± 0.17 g, the “Weight change rate, Day 9” value [1, 7] was −0.18 ± 1.13% and the “Weight of mice, Day 9” value [1, 7] was 20.43 ± 0.14 g. The “Weight change rate, Day 11” value [1, 8] was 1.05 ± 1.44%, the “Weight of mice, Day 11” value [1, 8] was 20.68 ± 0.20 g and the “Weight change rate, Day 14” value [1, 9] was −1.81 ± 2.2%. The “Weight of mice, Day 14” value [1, 9] was 20.10 ± 0.40 g, the “Weight change rate, Day 16” value [1, 10] was 0.01 ± 2.83% and the “Weight of mice, Day 16” value [1, 10] was 20.47 ± 0.49 g. The “Weight change rate, Day 18” value [1, 11] was 1.66 ± 3.62%, the “Weight of mice, Day 18” value [1, 11] was 20.80 ± 0.65 g and the “Weight change rate, Day 21” value [1, 12] was −0.53 ± 3.44%. For the same compound, the “Weight of mice, Day 21” value [1, 12] was 20.35 ± 0.59 g, the “Day 22 Mortality” value ([1]; Day 22, single IP dose (mg/kg)) was 0% and the “Weight change rate, Day 23” value [1, 13] was −1.07 ± 3.55%. For the same compound, the “Weight of mice, Day 23” value [1, 13] was 20.23 ± 0.57 g, the “Weight change rate, Day 25” value [1, 14] was −0.06 ± 3.97% and the “Weight of mice, Day 25” value [1, 14] was 20.43 ± 0.63 g. The “Weight change rate, Day 28” value [1, 15] was −1.11 ± 3.89%, the “Weight of mice, Day 28” value [1, 15] was 20.22 ± 0.61 g and the “Weight change rate, Day 30” value [1, 16] was 3.01 ± 7.70%. The “Weight of mice, Day 30” value [1, 16] was 21.00 ± 1.02 g, the clinical symptoms ([1]; after single IP dose, compared with model control group) was “no significant differences in clinical symptoms” and the “Day 0 (RTV)” value ([2]; Day 0) was 1.00. The “Tumor volume, Day 0” value ([2]; Day 0, Mean±SEM) was 71.46 ± 18.69 mm^3, the “Day 1 (TGI %)” value ([2]; Day 1) was 58.06% and the “Day 1 (RTV)” value ([2]; Day 1, Mean±SEM) was 1.00 ± 0.13. The “Tumor volume, Day 1” value ([2]; Day 1, Mean±SEM) was 75.71 ± 22.24** mm^3, the “Day 2 (TGI %)” value ([2]; Day 2) was 58.57% and the “Day 2 (RTV)” value ([2]; Day 2, Mean±SEM) was 1.14 ± 0.16. The “Tumor volume, Day 2” value ([2]; Day 2, Mean±SEM) was 91.91 ± 29.38** mm^3, the “Day 4 (TGI %)” value ([2]; Day 4) was 56.33% and the “Day 4 (RTV)” value ([2]; Day 4, Mean±SEM) was 1.56 ± 0.24. The “Tumor volume, Day 4” value ([2]; Day 4, Mean±SEM) was 129.69 ± 43.49** mm^3, the “Day 7 (TGI %)” value ([2]; Day 7) was 53.56% and the “Day 7 (RTV)” value ([2]; Day 7, Mean±SEM) was 2.68 ± 0.29. The “Tumor volume, Day 7” value ([2]; Day 7, Mean±SEM) was 200.84 ± 57.86* mm^3, the “Day 9 (TGI %)” value ([2]; Day 9) was 35.19% and the “Day 9 (RTV)” value ([2]; Day 9, Mean±SEM) was 5.21 ± 0.68. For the same compound, the “Tumor volume, Day 9” value ([2]; Day 9, Mean±SEM) was 382.62 ± 103.38 mm^3, the “Day 11 (TGI %)” value ([2]; Day 11) was 49.22% and the “Day 11 (RTV)” value ([2]; Day 11, Mean±SEM) was 6.61 ± 0.62. For the same compound, the “Tumor volume, Day 11” value ([2]; Day 11, Mean±SEM) was 495.68 ± 140.53* mm^3, the “Day 14 (TGI %)” value ([2]; Day 14) was 41.98% and the “Day 14 (RTV)” value ([2]; Day 14, Mean±SEM) was 12.40 ± 1.29. For the same compound, the “Tumor volume, Day 14” value ([2]; Day 14, Mean±SEM) was 835.57 ± 194.90* mm^3, the “Day 16 (TGI %)” value ([2]; Day 16) was 41.43% and the “Day 16 (RTV)” value ([2]; Day 16, Mean±SEM) was 16.20 ± 1.72. The “Tumor volume, Day 16” value ([2]; Day 16, Mean±SEM) was 1060.78 ± 231.28* mm^3, the “Day 18 (TGI %)” value ([2]; Day 18) was 36.63% and the “Day 18 (RTV)” value ([2]; Day 18, Mean±SEM) was 20.33 ± 2.96. For the same compound, the “Tumor volume, Day 18” value ([2]; Day 18, Mean±SEM) was 1266.27 ± 242.09* mm^3, the “Day 21 (TGI %)” value ([2]; Day 21) was 32.98% and the “Day 21 (RTV)” value ([2]; Day 21, Mean±SEM) was 26.21 ± 3.72. For the same compound, the “Tumor volume, Day 21” value ([2]; Day 21, Mean±SEM) was 1638.64 ± 312.92 mm^3, the “Day 23 (TGI %)” value ([2]; Day 23) was 28.91% and the “Day 23 (RTV)” value ([2]; Day 23, Mean±SEM) was 27.62 ± 4.39. The “Tumor volume, Day 23” value ([2]; Day 23, Mean±SEM) was 1678.97 ± 300.64 mm^3, the “Day 25 (TGI %)” value ([2]; Day 25) was 28.29% and the “Day 25 (RTV)” value ([2]; Day 25, Mean±SEM) was 30.73 ± 4.91. For the same compound, the “Tumor volume, Day 25” value ([2]; Day 25, Mean±SEM) was 1851.89 ± 322.59 mm^3, the “Day 28 (TGI %)” value ([2]; Day 28) was 20.94% and the “Day 28 (RTV)” value ([2]; Day 28, Mean±SEM) was 36.20 ± 6.28. For the same compound, the “Tumor volume, Day 28” value ([2]; Day 28, Mean±SEM) was 2126.03 ± 345.51 mm^3, the “Day 30 (TGI %)” value ([2]; Day 30) was 39.43% and the “Day 30 (RTV)” value ([2]; Day 30, Mean±SEM) was 56.36 ± 6.99. The “Tumor volume, Day 30” value ([2]; Day 30, Mean±SEM) was 1699.56 ± 350.73 mm^3 and the “dose that could be tolerated (maximum tolerated dose, MTD)” value (ICR mice) was 400 mg/kg.
